# Experimental data as given in patent US20240199648A1, “MAP4K1 INHIBITORS” (Blueprint Medicines Corporation, priority 2021, published 2024).
# Biological target: T1, MAP4K1 (HPK1) (Homo sapiens, UniProt Q92918)
# T1 construct: purchased Invitrogen
# Assay: Inhibition of MAP4K1 biochemical enzymatic activity (EZReader 2 electrophoretic mobility shift assay)
# Details: HPK1 (Invitrogen), S6K2tide 1.5 μM, 120 min; ATP 26 μM or 1000 μM (not stated which)
# Source text: MAP4K1 (HPK1) and relevant off-target enzymatic activity was monitored using the Perkin Elmer electrophoretic mobility shift technology platform—the EZReader 2. […] Within the linear, steady-state phase of the kinase enzymatic reaction, the mixed pool of phosphorylated (product) and non-phosphorylated (substrate) peptides was passed through the microfluidic system of the PerkinElmer EZ Reader 2, under an applied electric potential difference. The presence of the phosphate group on the product peptide provided a difference in mass and charge between that of the substrate peptide, resulting in a separation of the substrate and product pools in the sample (Perrin et al. 2010). As the product and substrate peptide mixture passes the lasers within the instrument, these pools are detected (λex=488 nm, λem=568 nm) and resolved as separate peaks. The ratio between these peaks reflects the activity of the compound at that concentration, in that well, under those conditions.
# Inhibitors were dissolved in 100% DMSO at a stock concentration of 10 mM. A 100×, 10-point, 4-fold serial dilution of each inhibitor was created in 100% DMSO either manually or on a Hamilton STAR liquid handler, starting at a relevant concentration, usually 1 mM. A volume of 0.130 μL of each concentration was transferred to the relevant wells of a 384-well plate (Greiner 781 201) in diplicate using a TTPLabtech Mosquito nano-litre dispenser. Using a Multidrop Combi, the remaining constituents of the kinase reaction were added to the 130 nL of dosed compound as follows (see table below for final reaction details):
# Enzyme activity assays at the ^APPKM for ATP or 1 mM ATP: In each well of a 384-well plate, 0.1-15 nM of untreated enzyme was incubated in a total of 13 μL of buffer (100 mM HEPES pH 7.5, 0.015% Brij 35, 10 mM MgCl2, 1 mM DTT) with 1.5 μM fluorescent peptid and 20-1000 μM ATP, at 25° C., for 60-180 minutes in the presence or absence of a dosed concentration series of compound (1% DMSO final concentration). The kinase reactions were stopped by the addition of 70 μl of Stop buffer (100 mM HEPES pH 7.5, 0.015% Brij 35, 35 mM EDTA and 0.2% of Coating Reagent 3 (Caliper Lifesciences)). The plates were read on a Caliper EZReader 2 as described above.
# T1 sequence (Q92918 whole entry): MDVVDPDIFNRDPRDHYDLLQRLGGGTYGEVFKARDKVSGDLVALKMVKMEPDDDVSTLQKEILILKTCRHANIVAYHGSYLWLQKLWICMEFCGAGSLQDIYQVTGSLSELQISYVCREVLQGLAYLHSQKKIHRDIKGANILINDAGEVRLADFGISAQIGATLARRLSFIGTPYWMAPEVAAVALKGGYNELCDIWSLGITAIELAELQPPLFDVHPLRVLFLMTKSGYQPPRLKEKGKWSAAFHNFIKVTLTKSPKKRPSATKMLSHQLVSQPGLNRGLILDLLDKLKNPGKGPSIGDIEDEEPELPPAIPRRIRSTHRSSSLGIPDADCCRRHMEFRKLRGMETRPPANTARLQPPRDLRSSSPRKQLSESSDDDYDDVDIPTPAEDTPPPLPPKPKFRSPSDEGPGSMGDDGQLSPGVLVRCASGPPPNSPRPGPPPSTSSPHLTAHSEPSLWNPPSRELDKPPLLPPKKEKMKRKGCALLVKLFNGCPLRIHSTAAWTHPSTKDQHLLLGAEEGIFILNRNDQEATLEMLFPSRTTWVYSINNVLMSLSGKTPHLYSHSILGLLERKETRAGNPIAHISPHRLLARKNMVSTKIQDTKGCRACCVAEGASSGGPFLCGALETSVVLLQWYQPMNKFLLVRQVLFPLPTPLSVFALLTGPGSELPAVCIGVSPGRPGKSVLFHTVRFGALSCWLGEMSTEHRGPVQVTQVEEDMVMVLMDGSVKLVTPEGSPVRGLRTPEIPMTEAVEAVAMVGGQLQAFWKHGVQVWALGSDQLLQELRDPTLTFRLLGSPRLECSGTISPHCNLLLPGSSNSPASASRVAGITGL
row,IC50,SMILES
1,0.49 nM,"CC(=O)N1CC(Oc2ncc(C(C)(C)N)c3cc(Nc4ccc5c(n4)[C@H](C)COC5=O)ncc23)C1 (single isomer, unassigned) [Compound 17]"
2,3.06 nM,"CC(=O)N1CC(Oc2ncc(C(C)(C)N)c3cc(Nc4ccc5c(n4)[C@@H](C)COC5=O)ncc23)C1 (single isomer, unassigned) [Compound 18]"
3,0.75 nM,"CC[C@@H](N)c1cnc(OC2CN(C(=O)[C@@H]3C[C@@H]3F)C2)c2cnc(Nc3ccc4c(n3)[C@@H](C)[C@H](C)OC4=O)cc12 (single isomer, unassigned) [Compound 58]"
4,0.27 nM,"CO[C@@H](C)C(=O)N1CC(Oc2ncc(C(C)(C)N)c3cc(Nc4ccc5c(n4)[C@@H](C)C(C)(C)OC5=O)ncc23)C1 (single isomer, unassigned) [Compound 86]"
5,0.21 nM,"CO[C@H](C)C(=O)N1CC(Oc2ncc(C(C)(C)N)c3cc(Nc4ccc5c(n4)[C@@H](C)C(C)(C)OC5=O)ncc23)C1 (single isomer, unassigned) [Compound 88]"
6,0.2 nM,"C[C@@H]1c2nc(Nc3cc4c(C(C)(C)N)cnc(OC[C@@H]5C[C@H]5C(=O)N(C)C)c4cn3)ccc2C(=O)OC1(C)C (single isomer, unassigned) [Compound 104]"
7,0.2 nM,"C[C@@H]1c2nc(Nc3cc4c(C(C)(C)N)cnc(OC[C@H]5C[C@@H]5C(=O)N(C)C)c4cn3)ccc2C(=O)OC1(C)C (single isomer, unassigned) [Compound 105]"
8,0.39 nM,"C[C@@H]1c2nc(Nc3cc4c(C(C)(C)N)cnc(OC[C@H]5C[C@H]5C(=O)N(C)C)c4cn3)ccc2C(=O)OC1(C)C (single isomer, unassigned) [Compound 106]"
9,0.31 nM,"C[C@@H]1c2nc(Nc3cc4c(C(C)(C)N)cnc(OC[C@@H]5C[C@@H]5C(=O)N(C)C)c4cn3)ccc2C(=O)OC1(C)C (single isomer, unassigned) [Compound 107]"
10,1.81 nM,"CC[C@H](N)c1cnc(O[C@H]2C[C@@H](C(=O)N3CC(OC)C3)C2)c2cnc(Nc3ccc4c(n3)[C@@H](C)C(C)(C)OC4=O)cc12 (single isomer, unassigned) [Compound 126]"
11,0.38 nM,CCC(=O)N1CC(Oc2ncc(C(C)(C)N)c3cc(Nc4ccc5c(n4)[C@@H](C)[C@H](C)OC5=O)ncc23)C1 [Compound 2]
12,0.47 nM,COC[C@@](C)(N)c1cnc(OC2CN(C(=O)C3CC3)C2)c2cnc(Nc3ccc4c(n3)[C@@H](C)C(C)(C)OC4=O)cc12 [Compound 16]
13,0.32 nM,CC[C@@](C)(N)c1cnc(OC2CN(C(C)=O)C2)c2cnc(Nc3ccc4c(n3)[C@@H](C)[C@H](C)OC4=O)cc12 [Compound 23]
14,0.89 nM,CC(=O)N1CC[C@@H](Oc2ncc(C(C)(C)N)c3cc(Nc4ccc5c(n4)[C@@H](C)[C@H](C)OC5=O)ncc23)C1 [Compound 24]
15,1.38 nM,CC(=O)N1CC[C@H](Oc2ncc(C(C)(C)N)c3cc(Nc4ccc5c(n4)[C@@H](C)[C@H](C)OC5=O)ncc23)C1 [Compound 25]
16,0.31 nM,CC(=O)N1CC(C)(Oc2ncc(C(C)(C)N)c3cc(Nc4ccc5c(n4)[C@@H](C)[C@H](C)OC5=O)ncc23)C1 [Compound 26]
17,0.3 nM,COC(=O)N1CC(Oc2ncc(C(C)(C)N)c3cc(Nc4ccc5c(n4)[C@@H](C)[C@H](C)OC5=O)ncc23)C1 [Compound 27]
18,0.29 nM,CC(=O)N(C)CCOc1ncc(C(C)(C)N)c2cc(Nc3ccc4c(n3)[C@@H](C)C(C)(C)OC4=O)ncc12 [Compound 28]
19,0.2 nM,CC(=O)N1CC(Oc2ncc(C(C)(C)N)c3cc(Nc4ccc5c(n4)C4(CC4)C(C)(C)OC5=O)ncc23)C1 [Compound 30]
20,0.17 nM,CC[C@@](C)(N)c1cnc(OC2CN(C(C)=O)C2)c2cnc(Nc3ccc4c(n3)[C@@H](C)C(C)(C)OC4=O)cc12 [Compound 32]
21,0.3 nM,COC(=O)N1CC[C@H](Oc2ncc(C(C)(C)N)c3cc(Nc4ccc5c(n4)[C@@H](C)[C@H](C)OC5=O)ncc23)C1 [Compound 35]
22,0.65 nM,COC(=O)N1CC[C@@H](Oc2ncc(C(C)(C)N)c3cc(Nc4ccc5c(n4)[C@@H](C)[C@H](C)OC5=O)ncc23)C1 [Compound 36]
23,0.15 nM,CCOC(=O)N1CC(Oc2ncc(C(C)(C)N)c3cc(Nc4ccc5c(n4)[C@@H](C)[C@H](C)OC5=O)ncc23)C1 [Compound 37]
24,0.23 nM,COC(=O)N1CC(Oc2ncc(C(C)(C)N)c3cc(Nc4ccc5c(n4)[C@@H](C)C(C)(C)OC5=O)ncc23)C1 [Compound 38]
25,0.1 nM,C[C@@H]1c2nc(Nc3cc4c(C(C)(C)N)ccc(OC5CN(C(=O)C6CC6)C5)c4cn3)ccc2C(=O)OC1(C)C [Compound 41]

row,IC50,SMILES
1,0.33 nM,C[C@@H]1c2nc(Nc3cc4c(C(C)(C)N)cnc(NC5CN(C(=O)C6CC6)C5)c4cn3)ccc2C(=O)OC1(C)C [Compound 42]
2,0.22 nM,CCC(=O)N1CC(Oc2ncc(C(C)(C)N)c3cc(Nc4ccc5c(n4)C4(CC4)C(C)(C)OC5=O)ncc23)C1 [Compound 43]
3,0.12 nM,C[C@@H]1C[C@@H]1C(=O)N1CC(Oc2ncc(C(C)(C)N)c3cc(Nc4ccc5c(n4)[C@@H](C)[C@H](C)OC5=O)ncc23)C1 [Compound 44]
4,0.16 nM,C[C@@H]1OC(=O)c2ccc(Nc3cc4c(C(C)(C)N)cnc(O[C@@H]5CN(C(=O)C6CC6)[C@H]5C)c4cn3)nc2[C@H]1C [Compound 45]
5,0.23 nM,C[C@@H]1OC(=O)c2ccc(Nc3cc4c(C(C)(C)N)cnc(OC5CN(C(=O)[C@@H]6C[C@@H]6C)C5)c4cn3)nc2[C@H]1C [Compound 46]
6,0.18 nM,C[C@@H]1OC(=O)c2ccc(Nc3cc4c(C(C)(C)N)cnc(OC5CN(C(=O)[C@H]6C[C@@H]6C)C5)c4cn3)nc2[C@H]1C [Compound 47]
7,0.32 nM,C[C@@H]1OC(=O)c2ccc(Nc3cc4c(C(C)(C)N)cnc(O[C@H]5CCN(C(=O)C6CC6)C5)c4cn3)nc2[C@H]1C [Compound 50]
8,0.36 nM,C[C@@H]1OC(=O)c2ccc(Nc3cc4c(C(C)(C)N)cnc(O[C@@H]5CCN(C(=O)C6CC6)C5)c4cn3)nc2[C@H]1C [Compound 51]
9,0.18 nM,C[C@@H]1OC(=O)c2ccc(Nc3cc4c(C(C)(C)N)cnc(OC5CN(C(=O)C6(C)CC6)C5)c4cn3)nc2[C@H]1C [Compound 52]
10,0.16 nM,C[C@@H]1OC(=O)c2ccc(Nc3cc4c(C(C)(C)N)cnc(OC5CN(C(=O)C6(O)CC6)C5)c4cn3)nc2[C@H]1C [Compound 55]
11,0.24 nM,CC[C@H](N)c1cnc(OC2CN(C(=O)[C@@H]3C[C@@H]3F)C2)c2cnc(Nc3ccc4c(n3)[C@@H](C)[C@H](C)OC4=O)cc12 [Compound 59]
12,0.16 nM,C[C@@H]1OC(=O)c2ccc(Nc3cc4c(C(C)(C)N)cnc(OC5CN(C(=O)C6(F)CC6)C5)c4cn3)nc2[C@H]1C [Compound 60]
13,0.21 nM,COCC(=O)N1CC(Oc2ncc(C(C)(C)N)c3cc(Nc4ccc5c(n4)[C@@H](C)C(C)(C)OC5=O)ncc23)C1 [Compound 61]
14,0.16 nM,C[C@@H]1C[C@@H]1C(=O)N1CC(Oc2ncc(C(C)(C)N)c3cc(Nc4ccc5c(n4)[C@@H](C)C(C)(C)OC5=O)ncc23)C1 [Compound 64]
15,0.22 nM,C[C@@H]1C[C@H]1C(=O)N1CC(Oc2ncc(C(C)(C)N)c3cc(Nc4ccc5c(n4)[C@@H](C)C(C)(C)OC5=O)ncc23)C1 [Compound 66]
16,0.2 nM,C[C@@H]1c2nc(Nc3cc4c(C(C)(C)N)cnc(OC5CN(C(=O)[C@@H]6C[C@@H]6C)C5)c4cn3)ccc2C(=O)OC1(C)C [Compound 67]
17,0.16 nM,C[C@@H]1c2nc(Nc3cc4c(C(C)(C)N)cnc(OC5CN(C(=O)[C@H]6C[C@@H]6C)C5)c4cn3)ccc2C(=O)OC1(C)C [Compound 68]
18,0.14 nM,C[C@@H]1OC(=O)c2ccc(Nc3cc4c(C(C)(C)N)cnc(OC5CN(C(=O)[C@H]6CC6(C)C)C5)c4cn3)nc2[C@H]1C [Compound 69]
19,0.27 nM,C[C@@H]1c2nc(Nc3cc4c(C(C)(C)N)cnc(OC5CN(C(=O)C6(C)CC6)C5)c4cn3)ccc2C(=O)OC1(C)C [Compound 71]
20,0.32 nM,C[C@@H]1OC(=O)c2ccc(Nc3cc4c(C(C)(C)N)cnc(OC5CN(C(=O)[C@H]6CCOC6)C5)c4cn3)nc2[C@H]1C [Compound 73]
21,0.36 nM,C[C@@H]1OC(=O)c2ccc(Nc3cc4c(C(C)(C)N)cnc(OC5CN(C(=O)[C@@H]6CCOC6)C5)c4cn3)nc2[C@H]1C [Compound 74]
22,0.38 nM,C[C@@H]1OC(=O)c2ccc(Nc3cc4c(C(C)(C)N)cnc(OC5CN(C(=O)[C@H]6CCCO6)C5)c4cn3)nc2[C@H]1C [Compound 75]
23,0.43 nM,C[C@@H]1c2nc(Nc3cc4c(C(C)(C)N)cnc(OC5CN(C(=O)C6(O)CC6)C5)c4cn3)ccc2C(=O)OC1(C)C [Compound 78]
24,0.31 nM,COC1(C(=O)N2CC(Oc3ncc(C(C)(C)N)c4cc(Nc5ccc6c(n5)[C@@H](C)[C@H](C)OC6=O)ncc34)C2)CC1 [Compound 79]
